The text below walks through data of PubChem BioAssay AID1745844 (Carcinogenic Potency Database (CPDB), 2022).

SMILES strings stand for the structures. Calls of active or inactive are those of the source. The rule behind the calls is not given here.

In this data set the test system is rodent lifetime carcinogenesis bioassay, tumor incidence TD50. The data set can be described thus: chronic cancer bioassays in animals – CPDB, compiled studies (AID 1745844).

By TD50 is commonly meant the 50% point of the dose-response relation for the toxic effect studied. Consider `CCOc1nc2cccc(C(=O)OC(C)OC(=O)OC3CCCCC3)c2n1Cc1ccc(-c2ccccc2-c2nn[nH]n2)cc1` (stereo not given), for which the TD50 (rat, strain Fischer 344/Jcl, females, in feed, site: any site (literature study), lesion: several types, types named in the paper, dosed 104 weeks, study length 104 weeks) was 11200 mg/kg/day (inactive). Also, the carcinogen call runs as follows: (rat, strain Fischer 344/Jcl, females, in feed, site: liver, lesion: hepatocellular adenoma, dosed 104 weeks, study length 104 weeks) “negative (inactive)”; (rat, strain Fischer 344/Jcl, males, in feed, site: any site (literature study), lesion: several types, types named in the paper, dosed 104 weeks, study length 104 weeks) “negative (inactive)”; (rat, strain Fischer 344/Jcl, males, in feed, site: liver, lesion: hepatocellular adenoma, dosed 104 weeks, study length 104 weeks) “negative (inactive)”.

Take `OC[C@H]1O[C@H](O[C@]2(CCl)O[C@H](CCl)[C@@H](O)[C@@H]2O)[C@H](O)[C@@H](O)[C@H]1Cl`: the carcinogen call was “negative (inactive)” (mouse, strain Charles River CD1, females, in feed, site: any site (literature study), lesion: several types, types named in the paper, dosed 104 weeks, study length 104 weeks); “negative (inactive)” (mouse, strain Charles River CD1, females, in feed, site: liver, lesion: hepatocellular adenoma, dosed 104 weeks, study length 104 weeks); “negative (inactive)” (mouse, strain Charles River CD1, females, in feed, site: lung, lesion: adenoma, dosed 104 weeks, study length 104 weeks); “negative (inactive)” (mouse, strain Charles River CD1, females, in feed, site: lung, lesion: carcinoma, dosed 104 weeks, study length 104 weeks); “negative (inactive)” (mouse, strain Charles River CD1, males, in feed, site: any site (literature study), lesion: several types, types named in the paper, dosed 104 weeks, study length 104 weeks); “negative (inactive)” (mouse, strain Charles River CD1, males, in feed, site: liver, lesion: hepatocellular adenoma, dosed 104 weeks, study length 104 weeks). The carcinogen call by setting is: (mouse, strain Charles River CD1, males, in feed, site: liver, lesion: hepatocellular carcinoma, dosed 104 weeks, study length 104 weeks) “negative (inactive)”; (mouse, strain Charles River CD1, males, in feed, site: lung, lesion: carcinoma, dosed 104 weeks, study length 104 weeks) “negative (inactive)”. The TD50 by setting is: (mouse, strain Charles River CD1, females, in feed, site: liver, lesion: hepatocellular carcinoma, dosed 104 weeks, study length 104 weeks) 98200 mg/kg/day (inactive); (mouse, strain Charles River CD1, males, in feed, site: lung, lesion: adenoma, dosed 104 weeks, study length 104 weeks) 35100 mg/kg/day (inactive).

`C[C@H]([C@H](O)CCC(C)(C)O)[C@H]1CC[C@@]2(O)C3=CC(=O)[C@@H]4C[C@@H](O)[C@@H](O)C[C@]4(C)[C@H]3CC[C@]12C`: the TD50 was 0.0264 mg/kg/day (mouse, strain Swiss albino, females, by gavage, site: any site (literature study), lesion: malignant tumor, dosed 95 weeks, study length 95 weeks); 0.0264 mg/kg/day (mouse, strain Swiss albino, females, by gavage, site: mammary gland, lesion: adenocarcinoma, dosed 95 weeks, study length 95 weeks); 0.0558 mg/kg/day (mouse, strain Swiss albino, males, by gavage, site: any site (literature study), lesion: malignant tumor, dosed 95 weeks, study length 95 weeks); 0.0558 mg/kg/day (mouse, strain Swiss albino, males, by gavage, site: lung, lesion: adenocarcinoma, dosed 95 weeks, study length 95 weeks).

Take `O=C(O)c1ccc(N=Nc2ccc(O)c(C(=O)O)c2)cc1`: the TD50 (mouse, strain NMRI, females, in feed, site: all sites, lesion: lymphoma, dosed 107 weeks, study length 107 weeks) is 1200 mg/kg/day (inactive); the TD50 (mouse, strain NMRI, females, in feed, site: lung, lesion: alveolar/bronchiolar adenoma, dosed 107 weeks, study length 107 weeks) was 2650 mg/kg/day (inactive); the TD50 (mouse, strain NMRI, males, in feed, site: liver, lesion: hepatocellular adenoma, dosed 120 weeks, study length 120 weeks) is 35200 mg/kg/day (inactive); the TD50 (mouse, strain NMRI, males, in feed, site: liver, lesion: hepatocellular carcinoma, dosed 120 weeks, study length 120 weeks) was 19500 mg/kg/day (inactive); the TD50 (mouse, strain NMRI, males, in feed, site: lung, lesion: alveolar/bronchiolar adenocarcinoma, dosed 120 weeks, study length 120 weeks) is 14300 mg/kg/day (inactive); the TD50 (mouse, strain NMRI, males, in feed, site: lung, lesion: alveolar/bronchiolar adenoma, dosed 120 weeks, study length 120 weeks) was 13000 mg/kg/day (inactive). Moreover, the TD50 (rat, strain Sprague-Dawley, males, in feed, site: thyroid gland, lesion: follicular-cell adenoma, dosed 118 weeks, study length 118 weeks) stood at 15300 mg/kg/day. The carcinogen call is, setting by setting: (mouse, strain NMRI, females, in feed, site: liver, lesion: hepatocellular adenoma, dosed 107 weeks, study length 107 weeks) “negative (inactive)”; (mouse, strain NMRI, females, in feed, site: lung, lesion: alveolar/bronchiolar adenocarcinoma, dosed 107 weeks, study length 107 weeks) “negative (inactive)”; (rat, strain Sprague-Dawley, females, in feed, site: liver, lesion: hepatocellular tumor, dosed 119 weeks, study length 119 weeks) “negative (inactive)”; (rat, strain Sprague-Dawley, males, in feed, site: liver, lesion: hepatocellular adenoma, dosed 118 weeks, study length 118 weeks) “negative (inactive)”; (rat, strain Sprague-Dawley, males, in feed, site: liver, lesion: hepatocellular carcinoma, dosed 118 weeks, study length 118 weeks) “negative (inactive)”.
